Laboratory results from patent US9371337B2, “β-lactamase inhibitors” (The Regents of the University of California, priority 2011, dated 2016).

Experiments:
Details in all cases: antibiotic alone
[1] = tested on: E. cloacae, AmpC-overproducing; assay: MIC of third-generation cephalosporins alone and with compounds (Table 6); type: cell-based, Enterobacter cloacae
Protocol: (§1) The anti-resistance activity of inhibitors was investigated by the determination of the minimum inhibitory concentrations (MICs) of the β-lactam/inhibitor combination necessary to inhibit the growth of clinically-isolated bacteria resistant to third-generation cephalosporins via expression of class A or class C β-lactamases (Table 6).
(§2) Susceptibility testing was performed and interpreted following the guidelines of CLSI. (Clinical and Laboratory Standards Institute, Performance standards for antimicrobial susceptibility testing, 20th Informational Supplement, M100-S20 2010) The compounds were dissolved in 50% DMSO, and dilutions were performed using Muller-Hinton medium. An adequate final concentration was obtained to determine the minimum inhibitory concentrations (MICs). The concentration of DMSO was maintained below 5%. The inhibitors were tested for synergy with the third-generation β-lactams ceftazidime and cefotaxime against several clinical bacteria. The ratio of β-lactams to inhibitors was 1:4. Each value reported reflects the average of three independent experiments. […] The Friedman's test and the Wilcoxon signed rank test were used to compare MIC values. Statistical significance was established at p<0.05.
(§3) Table 6. MICs (μg/ml) of third-generation cephalosporins alone and in association with the compounds (ratio 1/4) for clinical bacteria. CTX, cefotaxime and CAZ, ceftazidime. ^1, AmpC-overproducing bacteria; ^2, CTX-M-14-producing E. coli; ^3, KPC-2-producing K. pneumoniae; ^4, OXA-48-producing K. pneumoniae; ^5, NDM-1-producing C. freundii.

[2] = tested on: E. cloacae 135, AmpC-overproducing; assay: as above; type: cell-based, Enterobacter cloacae
Protocol: as §1, §2, §3

[3] = tested on: K. pneumoniae, AmpC-overproducing; assay: as above; type: cell-based, Klebsiella pneumoniae
Protocol: as §1, §2, §3

[4] = tested on: OXA-48-producing K. pneumoniae; assay: as above; type: cell-based, Klebsiella pneumoniae
Protocol: as §1, §2, §3

[5] = tested on: K. pneumoniae producing the plasmid-mediated class C β-lactamase DHA-1; assay: MIC of third-generation cephalosporins alone and with compounds 4 or 9 (Table 3); type: cell-based, Klebsiella pneumoniae
From the text: (§4) Antimicrobial activity was investigated quantitatively to determine the minimum inhibitory concentrations (MICs) of the β-lactam/inhibitor combination necessary to inhibit the bacterial growth (Table 3). The MICs of β-lactams alone against the strains corresponded to a high level of resistance according to Clinical and Laboratory Standards Institute (CLSI) standards. (Clinical and Laboratory Standards Institute, Performance standards for antimicrobial susceptibility testing, 20th Informational Supplement, M100-S20 2010) The compounds had no measurable antibiotic activity when used alone.
(§5) Susceptibility testing was performed and interpreted following the guidelines of CLSI. (Clinical and Laboratory Standards Institute, Performance standards for antimicrobial susceptibility testing, 20th Informational Supplement, M100-S20 2010) The compounds were dissolved in 50% DMSO, and dilutions were performed using Muller-Hinton medium. An adequate final concentration was obtained to determine the minimum inhibitory concentrations (MICs). The concentration of DMSO was maintained below 5%. The inhibitors were tested for synergy with the third-generation β-lactams ceftazidime and cefotaxime against several clinical bacteria. […] Each value reported reflects the average of three independent experiments. […] A Klebsiella pneumoniae isolate produced the inducible plasmid-mediated class C enzyme DHA-1. The Friedman's test and the Wilcoxon signed rank test were used to compare MIC values. Statistical significance was established at p<0.05.

[6] = tested on: E. cloacae overproducing chromosomally-mediated class C β-lactamase; assay: as above; type: cell-based, Enterobacter cloacae
From the text: as §4, §5

[7] = tested on: P. aeruginosa, AmpC-overproducing; assay: MIC of third-generation cephalosporins alone and with compounds (Table 6); type: cell-based, Pseudomonas aeruginosa
Protocol: as §1, §2
Table 6. MICs (μg/ml) of third-generation cephalosporins alone and in association with the compounds (ratio 1/4) for clinical bacteria. […]

Compound: CO/N=C(\C(=O)N[C@@H]1C(=O)N2C(C(=O)O)=C(COC(C)=O)CS[C@H]12)c1csc(N)n1 [Cefotaxime]
- MIC, cephalosporin alone [1]: 64 µg/mL
- MIC, cephalosporin alone [2]: 128 µg/mL
- MIC, cephalosporin alone [3]: 8 µg/mL
- MIC, cephalosporin alone [4]: 256 µg/mL
- MIC, cephalosporin alone [5]: 8 µg/mL
- MIC, cephalosporin alone [6]: 64 µg/mL
- MIC, cephalosporin alone [7]: >128 µg/mL
